Here are results for twelve molecules from patent US20220395487A1, “RIG-I INNATE IMMUNE RECEPTOR ANTAGONISTS AND METHODS OF USING SAME” (YALE UNIVERSITY, priority 2019, published 2022).

Experiment [1] deals with T1, RIG-I (Homo sapiens, UniProt O95786).
T1 sequence (O95786 1-925): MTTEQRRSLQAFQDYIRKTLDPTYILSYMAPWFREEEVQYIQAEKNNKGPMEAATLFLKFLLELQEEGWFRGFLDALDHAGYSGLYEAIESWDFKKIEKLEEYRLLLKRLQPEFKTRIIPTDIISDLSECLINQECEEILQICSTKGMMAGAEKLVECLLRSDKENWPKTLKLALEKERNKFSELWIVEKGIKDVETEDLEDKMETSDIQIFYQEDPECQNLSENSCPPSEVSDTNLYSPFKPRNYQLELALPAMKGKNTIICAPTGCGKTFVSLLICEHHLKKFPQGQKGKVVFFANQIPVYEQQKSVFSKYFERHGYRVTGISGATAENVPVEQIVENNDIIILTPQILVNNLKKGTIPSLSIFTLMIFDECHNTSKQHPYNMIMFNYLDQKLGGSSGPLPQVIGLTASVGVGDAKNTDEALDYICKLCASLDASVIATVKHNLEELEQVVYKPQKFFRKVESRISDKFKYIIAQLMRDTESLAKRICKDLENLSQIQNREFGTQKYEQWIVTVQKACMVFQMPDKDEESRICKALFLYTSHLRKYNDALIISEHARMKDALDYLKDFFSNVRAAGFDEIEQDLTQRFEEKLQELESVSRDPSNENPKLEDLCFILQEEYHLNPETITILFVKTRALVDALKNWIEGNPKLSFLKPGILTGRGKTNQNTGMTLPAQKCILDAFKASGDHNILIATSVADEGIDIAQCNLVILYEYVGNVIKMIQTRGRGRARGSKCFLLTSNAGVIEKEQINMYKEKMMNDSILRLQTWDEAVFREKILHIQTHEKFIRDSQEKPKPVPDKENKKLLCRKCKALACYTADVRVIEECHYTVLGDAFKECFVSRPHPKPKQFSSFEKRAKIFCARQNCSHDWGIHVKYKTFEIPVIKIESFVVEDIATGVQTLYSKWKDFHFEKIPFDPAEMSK
Briefly: ADP-Glo ATPase assay. To be noted: Poly I:C RNA activation, read-out: apparent IC50, RIG-I ATPase inhibition. Set-up: The native, full-length protein was expressed and purified using methods adapted from published protocols; SUMO (pET-SUMO vector; captured on Ni-NTA) (N, cleaved yes); made in house; host or cells: Rosetta II(DE3) Escherichia coli. Format: biochemical. On the procedure:
For the ADP-Glo assay system (V9101, Promega), RIG-I protein was diluted to 10 nM in assay buffer (25 mM MOPS pH 7.4, 150 mM NaCl, 2 mM DTT, and 2 mM Mg^2). For HTS experiments, Poly I:C RNA was used for RIG-I activation, and added to a final concentration of 0.4 μg/ml. To initiate the ATPase reactions, ATP was added to a final concentration of 200 μM. To test compounds, a 12-point serial dilution of the small molecule of interest was combined with DMSO, keeping the DMSO levels at a constant 1% throughout the entire drug dilution. Final drug concentrations ranged from 0 to 200 μM. The final volume for reaction was 20 μL per well, measured in a Corning 384-well plate (Plate ID: 3658). Reactions were allowed to proceed at room temperature for one hour, after which 2.5 μL of the ADP-Glo Reagent was added to each well. Samples were incubated at 25° C. for 45 min to terminate the ATPase reaction and deplete the remaining ATP. Next, 5 μL of Kinase Detection Reagent was added to each well in order to convert the ADP product back to ATP, which is then used as a substrate for the luminescent reporter, which was read on a Biotek Synergy HI Plate Reader.
Slopes from the twelve point curves were fit to a non-competitive, four variable inhibition curve in order to obtain IC50 values:
where X is Log10 [compound], Y is luminescence, Top and Bottom are the plateaus at Ymin and Ymax. […]
(In general: In ADP-Glo the light output rises with the ADP produced.)

Experiment [2] concerns the target T1, RIG-I. Briefly: NADH-coupled ATPase assay. The following applies: for IC50: NADH-coupled ATPase assay; for RIG-I ATPase inhibition, result in words: SAR discussion of Table 1 compounds. Details: The native, full-length protein was expressed and purified using methods adapted from published protocols; SUMO (pET-SUMO vector; captured on Ni-NTA) (N, cleaved yes); made in house; host or cells: Rosetta II(DE3) Escherichia coli. Format: biochemical. As for the experimental part:
In this case, RIG-I was activated by a well-defined synthetic RNA hairpin duplex (SLR10-OH), which was added to a final concentration of 250 nM. A coupled assay mixture consisting of 1 mM NADH, 100 U/ml lactic dehydrogenase, 500 U/ml pyruvate kinase, 2.5 mM phosphoenol pyruvic acid was added to the sample. A 12-point serial dilution of the compound of interest was added in a DMSO vehicle such that DMSO concentrations were kept at a constant 2% over the entire drug dilution. The final concentration ranges for drug dilutions varied from compound to compound based on the potency of the small molecule in question. The dilutions covered ranges from 0 to as high as 100 μM (see association figures). Samples were incubated for at least 1 hour at RT. Reactions were initiated by the addition of a 1:1 ATP/MgCl2 mix to a final concentration of 5 mM.
The rate of ATP hydrolysis was determined indirectly by monitoring the conversion of NADH to NAD^+ that results in a loss of sample absorbance at 340 nm. Absorbance was measured over a 20 min time course using a sweeping read at 10 second intervals and a gain setting of 120 on a Biotek Synergy H1 Plate Reader. Mean kobs values were extrapolated for each time course and plotted against drug concentration, then fit to Eq. (1) to determine IC50 values. Each point was a based on two trials of three biological replicates with error bars representing the Standard deviation.

Experiment [3] concerns the target T1, RIG-I. Briefly: IFN-β/Firefly dual-luciferase reporter assay in HEK 293T cells transfected with hRIG-I. The format is cell-based. The following applies: HEK293T cells, SLR14 challenge. As for the experimental part: Two different assays were used for evaluating RIG-I inhibition in cells. In the first assay, HEK 293T cells were used to test the influence of compounds on RIG-I signaling activity while simultaneously reporting on relative toxicity. In this case, inhibitor compounds were introduced via growth media replacement rather than by direct addition to cell plates. Specifically, HEK 293T cells (which express RIG-I only under the control of a transfected plasmid) were grown and maintained in T75 flasks containing Dulbecco's Modified Eagle Medium, DMEM (Life Technologies) supplemented with 10% heat-inactivated fetal bovine serum (Hyclone) and non-essential amino acids (Life Technologies). For the IFN-β induction assays, 0.5 ml of cells at 65,000 cells/ml was placed (seeded) in 24-well plates. After 24 h, each well of cells was transfected with 5 ng WT pUNO-hRIG-I (Invivogen), 6 ng pRL-TK constitutive Renilla luciferase reporter plasmid (Promega) and 150 ng of an IFN-β/Firefly luciferase reporter plasmid using the Lipofectamine 2000 transfection reagent (Life Technologies) following the manufacturer's protocol. Protein expression was allowed to proceed for 24 hours. In parallel, a six-point dilution series of each compound of interest was made in a DMSO vehicle and then diluted further into DMEM such that a constant DMSO concentration of 1% is maintained over the entire drug dilution. The DMEM growth media was aspirated from each well of cells and replaced with DMEM that contains the drug. After 30 minutes, the cells were challenged by transfection with 1 μg of the synthetic stem-loop RNA (SLR14) in Lipofectamine 2000. After 5-6 hours, cells were harvested for luminescence analysis in the following manner: Growth media was aspirated from each well, and 100 μl of passive lysis buffer (Promega) was added. Lysis proceeded for 15 min at room temperature. Lysates were clarified by centrifugation, and 20 μl samples of the supernatant were transferred to a 96-well assay plate for analysis using the Dual-Luciferase Reporter Assay System (Promega). Luminescence was measured using a Biotek Synergy H1 plate reader. The resulting Firefly luciferase activity (i.e. the induction of IFN-0) was normalized to the activity of the constitutively expressed Renilla luciferase to account for differences in confluency, transfection efficiency and cell viability across sample wells.
(In general: Reporter assays use an easily measured gene product as a stand-in for the process of interest.)

Where [4] appears, read: SLR10-OH activated, mean ± standard deviation, 3 measurements, read-out: IC50.

In the case of `CC1(C)C(=O)N=C2C1=C(O)C(=O)c1ccccc12` [RIG001, 4-Hydroxy-3,3-dimethyl-2H1,3H,5H1-benzo[g]indole-2,5-dione], the IC50 amounted to 19 ± 3 µM at RIG-I [1] and 12000 ± 1000 nM on RIG-I [2] (read-out: IC50 value in the coupled assay system). As to `COC1=C2C(=NC(=O)C2(C)C)c2ccccc2C1=O` [RIG002, 4-Methoxy-3,3-dimethyl-2H,3H,5H-benzo[g]indole-2,5-dione], at RIG-I [2] (setting [4]), the IC50 came out at 6300 ± 600 nM.

In the case of `COc1c2c(c3ccccc3c1OC)N(C)C(=O)C2(C)C` [RIG003, 4,5-Dimethoxy-1,3,3-trimethyl-1H,2H,3H-benzo[g]indol-2-one], at RIG-I [3], the “inhibition of RIG-I signaling / IFN induction, result in words” value is “did not influence levels of IFN induction or RIG-I response”. For `COc1c2c(c3ccccc3c1OC)NC(=O)C2(C)C` [RIG004, 4,5-Dimethoxy-3,3-dimethyl-1H,2H,3H-benzo[g]indol-2-one], the “RIG-I ATPase inhibition, result in words” value on RIG-I [2] was “loss of function”.

Regarding `CC1(C)C(=O)N=C2C1=C(OCc1ccccc1)C(=O)c1ccccc12` [RIG005, 4-Benzyloxy-3,3-dimethyl-2H,3H,5H-benzo[g]indole-2,5-dione], on RIG-I [2] (setting [4]), the IC50 turned out to be 2600 ± 200 nM. The same measure, in the same setting: in the case of `CC(C)COC1=C2C(=NC(=O)C2(C)C)c2ccccc2C1=O` [RIG006, 4-(2,2-Dimethylethoxy)-3,3-dimethyl-2H,3H,5H-benzo[g]indole-2,5-dione] it was 2100 ± 200 nM. On the same count and under the same terms, in the case of `CCOC1=C2C(=NC(=O)C2(C)C)c2ccccc2C1=O` [RIG007, 4-Ethoxy-3,3-dimethyl-2H,3H,5H-benzo[g]indole-2,5-dione] it was 1800 ± 100 nM; in that of `CC1(C)C(=O)N=C2C1=C(OCc1nc3ccccc3[nH]1)C(=O)c1ccccc12` [RIG008, 4-(1H-1,3-Benzodiazol-2-ylmethoxy)-3,3-dimethyl-2H,3H,5H-benzo[g]indole-2,5-dione], 1800 ± 300 nM; in that of `O=C1C(O)=C2C(=NC(=O)C23CCCCC3)c2ccccc21` [RIG009, 4-Hydroxy-2,5-dihydrospiro[benzo[g]indole-3,1′-cyclohexane]-2,5-dione], 2400 ± 300 nM. The same measure, in the same setting: then `O=C1C(OCc2ccccc2)=C2C(=NC(=O)C23CCCCC3)c2ccccc21` [RIG010, 4-(Benzyloxy)-2,5-dihydrospiro[benzo[g]indole-3,1′-cyclohexane]-2,5-dione], with 4700 ± 300 nM. Take `CCC1(CC)C(=O)N=C2C1=C(O)C(=O)c1ccccc12` [RIG011, 3,3-Diethyl-4-hydroxy-2H,3H,5H-benzo[g]indole-2,5-dione]: the 50% inhibitory concentration (IC50) on RIG-I [2] (setting [4]) came out at 890 ± 40 nM. The “RIG-I ATPase inhibition, result in words” value on RIG-I [2] is “nanomolar IC50 values”. Regarding `CC1(C)C(=O)N=C2C1=C(OCc1ccc3ccccc3c1)C(=O)c1ccccc12` [RIG013, 3,3-Dimethyl-4-(naphthalen-2-ylmethoxy)-2H,3H,5H-benzo[g]indole-2,5-dione], the IC50 at RIG-I [3] (compound in growth medium, read-out: IC50, inhibition of RIG-I signaling (IFN induction luciferase)) is 1360 nM; on RIG-I [2] (setting [4]), 2100 ± 200 nM.

The term IC50 denotes the concentration that inhibits the measured activity by half.
